Results published in ChEMBL document CHEMBL1201862, “PubChem BioAssay data set” (2004).
The source made the active and inactive calls.

Experiments:
[1] = target: T1, Short transient receptor potential channel 4 (Mus musculus, UniProt Q9QUQ5); assay: mouse TRPC4 channel inhibitors, dose response, cell-based, HEK293 TRPC4/mu-opioid, Fluo-4 calcium (AID 434942); format: functional;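 further: potency of inhibitors blocking the TRPC4 calcium response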
T1 sequence (Q9QUQ5 whole entry): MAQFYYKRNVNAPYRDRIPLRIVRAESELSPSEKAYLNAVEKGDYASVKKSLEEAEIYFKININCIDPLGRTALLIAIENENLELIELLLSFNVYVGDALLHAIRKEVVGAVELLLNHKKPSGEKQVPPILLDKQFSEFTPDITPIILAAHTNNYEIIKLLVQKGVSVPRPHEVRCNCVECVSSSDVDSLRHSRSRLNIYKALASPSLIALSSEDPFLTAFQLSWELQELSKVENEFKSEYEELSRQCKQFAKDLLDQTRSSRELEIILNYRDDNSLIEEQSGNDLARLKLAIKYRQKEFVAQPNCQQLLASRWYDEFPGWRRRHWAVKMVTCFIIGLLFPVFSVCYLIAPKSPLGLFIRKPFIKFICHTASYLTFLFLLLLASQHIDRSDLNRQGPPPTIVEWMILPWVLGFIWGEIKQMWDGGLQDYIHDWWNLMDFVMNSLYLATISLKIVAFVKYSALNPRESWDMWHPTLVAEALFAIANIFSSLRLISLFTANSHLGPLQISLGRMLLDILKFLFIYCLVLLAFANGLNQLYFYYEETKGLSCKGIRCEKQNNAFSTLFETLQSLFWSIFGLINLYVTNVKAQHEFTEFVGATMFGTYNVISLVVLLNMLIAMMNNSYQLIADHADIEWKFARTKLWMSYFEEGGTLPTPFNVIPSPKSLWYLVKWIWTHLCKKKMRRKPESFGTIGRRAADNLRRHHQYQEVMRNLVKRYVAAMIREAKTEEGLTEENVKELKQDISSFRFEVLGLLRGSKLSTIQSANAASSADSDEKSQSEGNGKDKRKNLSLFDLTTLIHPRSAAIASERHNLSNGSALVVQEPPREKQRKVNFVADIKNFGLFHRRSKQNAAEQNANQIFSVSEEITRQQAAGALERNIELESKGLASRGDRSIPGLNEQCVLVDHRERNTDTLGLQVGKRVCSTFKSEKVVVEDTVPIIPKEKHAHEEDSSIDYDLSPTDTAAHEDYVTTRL

[2] = growth suppression of PTEN-null colon cells, dose response, cell-based, HCT116 PTEN knockout (AID 1047); format: functional;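 further: HCT116 colon tumor cells with PTEN knocked out; cells exposed to compound for 60 hours before readout; potency for loss of cell viability measured by luminescence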
[3] = growth suppression of beta-catenin-knockout colon cells, dose response, cell-based, HCT116, human colon tumor (AID 1045); format: functional;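 further: HCT116 colon tumor cells with beta catenin knocked out; cells exposed to compound for 60 hours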
[4] = target: T2, Corticotropin-releasing factor receptor 2/Corticotropin-releasing factor-binding protein (Homo sapiens, UniProt P24387+Q13324); assay: Dose Response confirmation of uHTS hits for small molecule antagonists of the CRF-binding protein and CRF-R2 receptor complex.; format: functional; conditions: read-out: IC50_Mean
T2 sequence (Q13324 whole entry): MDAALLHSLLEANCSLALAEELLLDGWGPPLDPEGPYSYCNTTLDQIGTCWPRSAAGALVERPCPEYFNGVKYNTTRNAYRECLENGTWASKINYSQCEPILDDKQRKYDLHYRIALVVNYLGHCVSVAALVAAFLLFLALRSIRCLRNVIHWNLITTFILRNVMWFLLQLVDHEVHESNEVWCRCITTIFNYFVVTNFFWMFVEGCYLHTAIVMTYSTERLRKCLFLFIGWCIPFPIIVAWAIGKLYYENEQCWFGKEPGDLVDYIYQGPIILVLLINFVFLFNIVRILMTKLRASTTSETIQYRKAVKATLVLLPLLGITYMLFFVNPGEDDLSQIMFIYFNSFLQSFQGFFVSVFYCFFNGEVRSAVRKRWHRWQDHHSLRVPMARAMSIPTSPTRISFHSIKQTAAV
T2 sequence (P24387 whole entry): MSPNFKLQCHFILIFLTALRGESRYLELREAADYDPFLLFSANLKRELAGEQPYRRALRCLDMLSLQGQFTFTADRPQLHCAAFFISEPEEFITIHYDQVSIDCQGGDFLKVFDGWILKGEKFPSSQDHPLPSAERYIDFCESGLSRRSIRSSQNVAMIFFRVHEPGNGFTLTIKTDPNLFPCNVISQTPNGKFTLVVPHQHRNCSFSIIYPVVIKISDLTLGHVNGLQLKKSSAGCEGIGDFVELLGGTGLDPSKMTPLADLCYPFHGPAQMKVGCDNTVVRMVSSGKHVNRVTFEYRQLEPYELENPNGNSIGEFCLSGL

[5] = target: T2, Corticotropin-releasing factor receptor 2/Corticotropin-releasing factor-binding protein; assay: activators of CRF receptor 2 with binding protein – uHTS hits, confirmation (AID 602473); format: functional; conditions: read-out: EC50_Mean
Cytochrome P450 2C9 = Cytochrome P450 2C9 (Homo sapiens, UniProt P11712)
Sequence of Cytochrome P450 2C9 (P11712 whole entry): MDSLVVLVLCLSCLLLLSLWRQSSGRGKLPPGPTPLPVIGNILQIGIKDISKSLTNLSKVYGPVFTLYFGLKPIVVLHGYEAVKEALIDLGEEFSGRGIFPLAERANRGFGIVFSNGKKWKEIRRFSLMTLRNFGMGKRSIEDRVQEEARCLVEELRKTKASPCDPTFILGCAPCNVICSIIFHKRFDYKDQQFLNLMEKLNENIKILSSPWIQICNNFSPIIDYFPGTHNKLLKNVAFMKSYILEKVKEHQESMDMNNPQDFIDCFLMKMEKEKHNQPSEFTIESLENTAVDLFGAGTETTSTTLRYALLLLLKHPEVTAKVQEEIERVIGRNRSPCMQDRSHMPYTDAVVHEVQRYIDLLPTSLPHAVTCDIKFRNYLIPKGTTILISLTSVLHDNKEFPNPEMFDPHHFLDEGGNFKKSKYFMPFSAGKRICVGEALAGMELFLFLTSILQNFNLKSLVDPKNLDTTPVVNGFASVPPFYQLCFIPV

[6] = target: T3, Replicative DNA helicase DnaB (Mycobacterium tuberculosis, UniProt P9WMR3); assay: DnaB intein splicing inhibitors, dose response, biochemical, cell-free fluorescence (AID 449749); format: functional
T3 sequence (P9WMR3 whole entry): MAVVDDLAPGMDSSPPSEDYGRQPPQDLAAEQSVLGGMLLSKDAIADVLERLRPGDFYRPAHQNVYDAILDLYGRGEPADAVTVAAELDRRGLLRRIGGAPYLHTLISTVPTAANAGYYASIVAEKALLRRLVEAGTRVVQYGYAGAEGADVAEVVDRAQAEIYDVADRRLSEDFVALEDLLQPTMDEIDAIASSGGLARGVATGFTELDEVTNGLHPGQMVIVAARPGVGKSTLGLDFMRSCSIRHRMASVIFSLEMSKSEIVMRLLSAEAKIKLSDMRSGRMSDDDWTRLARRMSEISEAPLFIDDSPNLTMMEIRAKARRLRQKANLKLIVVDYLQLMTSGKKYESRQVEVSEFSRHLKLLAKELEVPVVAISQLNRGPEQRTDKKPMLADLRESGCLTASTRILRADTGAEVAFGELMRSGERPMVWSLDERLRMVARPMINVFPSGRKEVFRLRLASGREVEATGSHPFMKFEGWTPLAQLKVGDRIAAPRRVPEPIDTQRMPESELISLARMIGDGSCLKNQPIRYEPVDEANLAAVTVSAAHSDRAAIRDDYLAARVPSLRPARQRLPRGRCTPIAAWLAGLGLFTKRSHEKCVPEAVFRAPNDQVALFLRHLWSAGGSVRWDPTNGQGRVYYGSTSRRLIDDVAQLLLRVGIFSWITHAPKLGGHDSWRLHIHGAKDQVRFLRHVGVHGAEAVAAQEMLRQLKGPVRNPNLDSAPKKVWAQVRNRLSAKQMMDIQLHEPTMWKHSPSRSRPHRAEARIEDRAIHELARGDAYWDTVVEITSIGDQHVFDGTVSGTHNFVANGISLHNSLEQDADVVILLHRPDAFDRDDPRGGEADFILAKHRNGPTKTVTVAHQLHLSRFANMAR

Protein RecA = target: T4, Protein RecA (Mycobacterium tuberculosis, UniProt P9WHJ3); assay: Fluorescence Cell-Free Homogeneous Dose Retest to Identify Inhibitors of RecA-Intein Splicing Activity. [Related pubchem assays (depositor defined):AID2097, AID2223, AID489010, AID492950]; format: functional
T4 sequence (P9WHJ3 whole entry): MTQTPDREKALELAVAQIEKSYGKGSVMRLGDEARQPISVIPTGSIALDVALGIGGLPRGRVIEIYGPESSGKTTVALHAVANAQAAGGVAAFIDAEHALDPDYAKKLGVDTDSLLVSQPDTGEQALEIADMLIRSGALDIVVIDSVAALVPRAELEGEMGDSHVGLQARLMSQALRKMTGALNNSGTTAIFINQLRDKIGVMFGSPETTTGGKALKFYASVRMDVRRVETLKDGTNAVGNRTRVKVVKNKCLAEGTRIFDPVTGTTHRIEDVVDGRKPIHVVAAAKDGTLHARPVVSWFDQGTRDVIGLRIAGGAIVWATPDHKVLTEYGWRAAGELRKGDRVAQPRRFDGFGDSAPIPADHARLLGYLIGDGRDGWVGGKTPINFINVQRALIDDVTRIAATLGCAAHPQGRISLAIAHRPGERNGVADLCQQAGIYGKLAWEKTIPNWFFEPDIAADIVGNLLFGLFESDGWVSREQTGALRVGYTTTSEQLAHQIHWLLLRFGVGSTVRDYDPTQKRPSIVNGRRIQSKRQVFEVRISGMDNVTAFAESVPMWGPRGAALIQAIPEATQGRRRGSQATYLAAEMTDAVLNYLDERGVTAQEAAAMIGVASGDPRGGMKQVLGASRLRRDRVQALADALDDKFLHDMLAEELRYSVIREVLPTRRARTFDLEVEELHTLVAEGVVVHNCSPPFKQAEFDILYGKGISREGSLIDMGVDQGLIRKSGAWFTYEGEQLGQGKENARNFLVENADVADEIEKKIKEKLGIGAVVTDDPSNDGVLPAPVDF

[7] = NIH-3T3 fibroblast cytotoxicity, dose response, cytotoxicity control, cell-based, fluorescence, Alamar Blue, secondary assay (AID 2327); format: functional;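 further: NIH-3T3 mouse fibroblasts cultured with fluconazole at 8 µg/mL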
[8] = C. albicans growth with fluconazole, confirmation, fluorescence, retest (AID 2467); format: functional, cell-based

Structure (SMILES)	EC50 [1]	IC50 [4]	EC50 [5]	also measured
CCOC(=O)C1CCN(C2CCN(C(=O)c3oc4c(C)c(C)ccc4c3C)CC2)CC1	4.22 µM (active)	–	–	–
Clc1ccc(-n2nnnc2-c2cnc(-c3ccncc3)nc2-c2cccs2)cc1	–	–	–	EC50 [2]: 16.9 µM (active); EC50 [3]: 21.1 µM (active)
CCn1c(S)nnc1CCNC(=O)c1ccccc1Cl	–	> 47.1 µM (inactive)	> 53 µM (inactive)	AC50 (Cytochrome P450 2C9): 1.58 µM (inconclusive)
CCN(CC)C(=O)/C(=C/c1cn(S(=O)(=O)N(C)C)c2ccccc12)NC(=O)c1ccc(OC)cc1	–	> 47.1 µM (inactive)	> 53 µM (inactive)	–
Cc1sc2nc(CN(Cc3cccs3)C(=O)NC3CCCCC3)[nH]c(=O)c2c1C	–	16.4 µM (active)	> 53 µM (inactive)	–
CN(C)C(=O)c1ccc2c(c1[N+](=O)[O-])C(=O)c1ccccc1C2=O	–	–	–	AC50 [6]: 57.9 µM (active); EC50 (Protein RecA): 0.558 µM (active); EC50 [2]: 87 µM (active); EC50 [3]: 105 µM (active)
COc1ccc(C(CNc2ccc(C(F)(F)F)cn2)N(C)C)cc1OC (stereo not given)	0.299 µM (active)	–	–	–
Cc1nn(C)c(C)c1NC(=O)CSc1nc(C2CC2)nc2c1cnn2-c1ccccc1	–	–	–	EC50 [2]: 5.78 µM (active); EC50 [3]: 10.8 µM (active)
CCOC(=O)c1oc2ccccc2c1CN1CCCCC1	4.22 µM (active)	–	–	–
COc1ccc(CCNC(=O)c2cccc3c2C(=O)N(C2CCCCC2)C3)cc1OC	–	5.54 µM (active)	> 53 µM (inactive)	–
Cc1cc(-c2sccc2C)nc(-n2cccc2)n1	7.5 µM (active)	–	–	–
CC12CCC(C(=O)NNc3ccc([N+](=O)[O-])cc3)(CC1=O)C2(C)C (stereo not given)	–	–	–	EC50 [7]: > 150 µM (inconclusive); EC50 [8]: > 38 µM (not active)
CCCSC(=N)N/N=C/c1ccccc1O	–	–	–	EC50 [2]: 34.7 µM (active); EC50 [3]: 32.4 µM (active)
COc1ccc(C(=O)ON=C(N)Cc2ccc(Cl)cc2)cc1OC	–	–	–	EC50 [2]: 21.6 µM (active); EC50 [3]: 19.1 µM (active)
COc1ccc(NS(=O)(=O)c2ccc(N3CCOCC3)c(NC(=O)C(C)C)c2)cc1	–	> 47.1 µM (inactive)	> 53 µM (inactive)	–
CCOc1cc(-c2nc(-c3cc(OC)c(OC)c(OC)c3)no2)cc(OCC)c1OCC	–	–	–	EC50 [7]: > 160 µM (inactive); EC50 [8]: > 38 µM (not active)

Structure (SMILES)	EC50 [1]	IC50 [4]	EC50 [5]	also measured
Cc1ccc(C[n+]2cc(-c3ccc(Cl)cc3)n3c2CCC3)cc1	2.37 µM (active)	–	–	–
CN(Cc1cnn(C)c1)C(=O)c1ccc(OC2CCN(CCc3ccccc3)CC2)cc1	1.5 µM (active)	–	–	–
C=CCSc1nc(-c2ccc(OCCC)cc2)n[nH]1	–	–	–	EC50 [7]: > 150 µM (inactive); EC50 [8]: > 38 µM (not active)
COc1ccc2c(c1)c(C(=O)O)c(C)n2-c1ccc(Cl)cc1	–	> 47.1 µM (inactive)	> 53 µM (inactive)	–
CC1CCC(NC(=O)c2ccc(/C=C3\Oc4ccccc4N(C)C3=O)cc2)CC1 (stereo not given)	–	–	–	EC50 [2]: 28 µM (active); EC50 [3]: 26.7 µM (active)
Cc1ccc(C(=O)C=Cc2cccc(C)c2)cc1	–	> 47.1 µM (inactive)	> 53 µM (inactive)	–
CC(=O)NC1=NN(C(C)=O)C(C)(c2ccccn2)S1 (stereo not given)	–	> 47.1 µM (inactive)	> 53 µM (inactive)	–
Cc1noc(NS(=O)(=O)c2ccc(NC(=O)CS(=O)(=O)c3ccccc3)cc2)c1C	–	> 47.1 µM (inactive)	> 53 µM (inactive)	–
COc1ccc(C2NC(C(=O)O)Cc3c2[nH]c2ccccc32)cc1CN1CCN(c2ccc(F)cc2)CC1 (stereo not given)	0.531 µM (active)	–	–	–
CC(C)c1noc2ncc(C(=O)c3cc(Cl)cc(Cl)c3O)cc12	–	–	–	EC50 [7]: > 160 µM (inactive); EC50 [8]: 3.63 µM (active)
Cc1ccc(Cn2c(=N)n(CC(O)c3ccco3)c3ccccc32)cc1 (stereo not given)	1.88 µM (active)	–	–	–
COc1ccc(CCN=C(N)S)cc1OC	–	> 47.1 µM (inactive)	> 53 µM (inactive)	–
COc1cccc(C(=O)C2CCCN(Cc3cccn3-c3ccccn3)C2)c1 (stereo not given)	6.68 µM (active)	–	–	–
Cc1ccccc1N=C1N=C(S)N(c2ccccc2)C12CCCCC2	–	> 47.1 µM (inactive)	> 53 µM (inactive)	–
CCCOc1ccc(Br)cc1/C=N/O	1.68 µM (active)	–	–	–
